# In PubChem BioAssay AID1053166 (Broad Institute, 2014):
# Test system: Vaccinia-infected cells, mCherry/Venus stage reporter fluorescence
# Assay: inhibition of vaccinia stage-reporter fluorescence – cell-based, dry powder, dose response (AID 1053166)
row,SMILES,AC50 [nM]
1,C[C@@H](O)C#Cc1ccc2c(c1)O[C@@H](CN(C)Cc1ccc(-c3ccccc3Cl)cc1)[C@@H](C)CN([C@@H](C)CO)S2(=O)=O,992
2,Cc1cccc(-c2ccc(CN(C)C[C@@H]3Oc4cc(C#C[C@@H](C)O)ccc4S(=O)(=O)N([C@@H](C)CO)C[C@@H]3C)cc2)c1,2370
3,Cc1ccc(-c2ccc(CN(C)C[C@@H]3Oc4cc(C#C[C@@H](C)O)ccc4S(=O)(=O)N([C@@H](C)CO)C[C@@H]3C)cc2)cc1,1790
4,Cc1ccccc1-c1ccc(CN(C)C[C@@H]2Oc3cc(C#C[C@@H](C)O)ccc3S(=O)(=O)N([C@@H](C)CO)C[C@@H]2C)cc1,1150
